# Test system: Energy system protein genes
# Assay: DNA chip mRNA expression in yeast, energy system protein genes (Table 4)
# Type: cell-based, Saccharomyces cerevisiae S288C
# Procedure, shortened: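 Cells were grown at 25° C. in YPD, treated at logarithmic phase for 2 h with a chemical at a concentration inhibiting growth but not causing death, and compared with untreated cultures. Labeled cDNA was hybridized to a DNA chip carrying all yeast genes, and the expression ratio was taken from scanner fluorescence.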
substance,measurement,setting,value
Na2As [(1)],The level of expressed mRNA in the presence of chemical substance/The level of expressed mRNA in the absence of chemical substance,yeast gene YAL060W,1.1
same,The level of expressed mRNA in the presence of chemical substance/The level of expressed mRNA in the absence of chemical substance,"yeast gene YBL058W, cells incubated two hours with the chemical substance",0.9
same,The level of expressed mRNA in the presence of chemical substance/The level of expressed mRNA in the absence of chemical substance,"yeast gene YBL099W, cells incubated two hours with the chemical substance",0.8
same,The level of expressed mRNA in the presence of chemical substance/The level of expressed mRNA in the absence of chemical substance,"yeast gene YBR001C, cells incubated two hours with the chemical substance",0.9
same,The level of expressed mRNA in the presence of chemical substance/The level of expressed mRNA in the absence of chemical substance,"yeast gene YBR185C, cells incubated two hours with the chemical substance",1.5
same,The level of expressed mRNA in the presence of chemical substance/The level of expressed mRNA in the absence of chemical substance,"yeast gene YBR221C, cells incubated two hours with the chemical substance",0.8
same,The level of expressed mRNA in the presence of chemical substance/The level of expressed mRNA in the absence of chemical substance,yeast gene YCL040W,0.9
same,The level of expressed mRNA in the presence of chemical substance/The level of expressed mRNA in the absence of chemical substance,yeast gene YCR012W,1.2
same,The level of expressed mRNA in the presence of chemical substance/The level of expressed mRNA in the absence of chemical substance,"yeast gene YCR046C, cells incubated two hours with the chemical substance",1.0
same,The level of expressed mRNA in the presence of chemical substance/The level of expressed mRNA in the absence of chemical substance,"yeast gene YCR105W, cells incubated two hours with the chemical substance",2.2
same,The level of expressed mRNA in the presence of chemical substance/The level of expressed mRNA in the absence of chemical substance,yeast gene YDL021W,5.1
same,The level of expressed mRNA in the presence of chemical substance/The level of expressed mRNA in the absence of chemical substance,"yeast gene YDL067C, cells incubated two hours with the chemical substance",1.8
same,The level of expressed mRNA in the presence of chemical substance/The level of expressed mRNA in the absence of chemical substance,"yeast gene YDL078C, cells incubated two hours with the chemical substance",0.7
same,The level of expressed mRNA in the presence of chemical substance/The level of expressed mRNA in the absence of chemical substance,"yeast gene YDL107W, cells incubated two hours with the chemical substance",1.3
same,The level of expressed mRNA in the presence of chemical substance/The level of expressed mRNA in the absence of chemical substance,yeast gene YDL174C,0.9
same,The level of expressed mRNA in the presence of chemical substance/The level of expressed mRNA in the absence of chemical substance,"yeast gene YDL181W, cells incubated two hours with the chemical substance",1.4
same,The level of expressed mRNA in the presence of chemical substance/The level of expressed mRNA in the absence of chemical substance,yeast gene YDR001C,1.0
same,The level of expressed mRNA in the presence of chemical substance/The level of expressed mRNA in the absence of chemical substance,"yeast gene YDR050C, cells incubated two hours with the chemical substance",1.9
same,The level of expressed mRNA in the presence of chemical substance/The level of expressed mRNA in the absence of chemical substance,"yeast gene YDR079W, cells incubated two hours with the chemical substance",1.3
same,The level of expressed mRNA in the presence of chemical substance/The level of expressed mRNA in the absence of chemical substance,"yeast gene YDR178W, cells incubated two hours with the chemical substance",2.0
same,The level of expressed mRNA in the presence of chemical substance/The level of expressed mRNA in the absence of chemical substance,yeast gene YDR231C,1.1
same,The level of expressed mRNA in the presence of chemical substance/The level of expressed mRNA in the absence of chemical substance,"yeast gene YDR298C, cells incubated two hours with the chemical substance",1.3
same,The level of expressed mRNA in the presence of chemical substance/The level of expressed mRNA in the absence of chemical substance,"yeast gene YDR377W, cells incubated two hours with the chemical substance",1.3
same,The level of expressed mRNA in the presence of chemical substance/The level of expressed mRNA in the absence of chemical substance,"yeast gene YDR529C, cells incubated two hours with the chemical substance",1.8
same,The level of expressed mRNA in the presence of chemical substance/The level of expressed mRNA in the absence of chemical substance,"yeast gene YEL024W, cells incubated two hours with the chemical substance",1.5
same,The level of expressed mRNA in the presence of chemical substance/The level of expressed mRNA in the absence of chemical substance,"yeast gene YEL039C, cells incubated two hours with the chemical substance",1.1
same,The level of expressed mRNA in the presence of chemical substance/The level of expressed mRNA in the absence of chemical substance,yeast gene YER178W,0.8
same,The level of expressed mRNA in the presence of chemical substance/The level of expressed mRNA in the absence of chemical substance,yeast gene YFL057C,20.9
same,The level of expressed mRNA in the presence of chemical substance/The level of expressed mRNA in the absence of chemical substance,yeast gene YFR053C,1.8
same,The level of expressed mRNA in the presence of chemical substance/The level of expressed mRNA in the absence of chemical substance,"yeast gene YGL018C, cells incubated two hours with the chemical substance",1.5
same,The level of expressed mRNA in the presence of chemical substance/The level of expressed mRNA in the absence of chemical substance,yeast gene YGL062W,0.6
same,The level of expressed mRNA in the presence of chemical substance/The level of expressed mRNA in the absence of chemical substance,"yeast gene YGL187C, cells incubated two hours with the chemical substance",1.5
same,The level of expressed mRNA in the presence of chemical substance/The level of expressed mRNA in the absence of chemical substance,"yeast gene YGL191W, cells incubated two hours with the chemical substance",2.3
same,The level of expressed mRNA in the presence of chemical substance/The level of expressed mRNA in the absence of chemical substance,"yeast gene YGL205W, cells incubated two hours with the chemical substance",1.0
same,The level of expressed mRNA in the presence of chemical substance/The level of expressed mRNA in the absence of chemical substance,"yeast gene YGL256W, cells incubated two hours with the chemical substance",0.9
same,The level of expressed mRNA in the presence of chemical substance/The level of expressed mRNA in the absence of chemical substance,yeast gene YGR043C,2.6
same,The level of expressed mRNA in the presence of chemical substance/The level of expressed mRNA in the absence of chemical substance,"yeast gene YGR062C, cells incubated two hours with the chemical substance, 25° C., YPD medium",0.9
same,The level of expressed mRNA in the presence of chemical substance/The level of expressed mRNA in the absence of chemical substance,"yeast gene YGR087C, cells incubated two hours with the chemical substance",1.0
same,The level of expressed mRNA in the presence of chemical substance/The level of expressed mRNA in the absence of chemical substance,"yeast gene YGR174C, cells incubated two hours with the chemical substance",1.1
same,The level of expressed mRNA in the presence of chemical substance/The level of expressed mRNA in the absence of chemical substance,yeast gene YGR192C,1.4
same,The level of expressed mRNA in the presence of chemical substance/The level of expressed mRNA in the absence of chemical substance,yeast gene YGR244C,1.0
same,The level of expressed mRNA in the presence of chemical substance/The level of expressed mRNA in the absence of chemical substance,yeast gene YGR254W,1.2
same,The level of expressed mRNA in the presence of chemical substance/The level of expressed mRNA in the absence of chemical substance,yeast gene YHR179W,3.3
same,The level of expressed mRNA in the presence of chemical substance/The level of expressed mRNA in the absence of chemical substance,yeast gene YIL160C,0.8
same,The level of expressed mRNA in the presence of chemical substance/The level of expressed mRNA in the absence of chemical substance,"yeast gene YIR031C, cells incubated two hours with the chemical substance",0.9
same,The level of expressed mRNA in the presence of chemical substance/The level of expressed mRNA in the absence of chemical substance,yeast gene YJL052W,1.6
same,The level of expressed mRNA in the presence of chemical substance/The level of expressed mRNA in the absence of chemical substance,"yeast gene YJL121C, cells incubated two hours with the chemical substance",1.0
same,The level of expressed mRNA in the presence of chemical substance/The level of expressed mRNA in the absence of chemical substance,"yeast gene YJL166W, cells incubated two hours with the chemical substance",2.1
same,The level of expressed mRNA in the presence of chemical substance/The level of expressed mRNA in the absence of chemical substance,"yeast gene YJL216C, cells incubated two hours with the chemical substance",1.1
same,The level of expressed mRNA in the presence of chemical substance/The level of expressed mRNA in the absence of chemical substance,yeast gene YJR009C,1.1

# From patent US8192962B2, “Processes for detecting toxic substances” (Daikin Industries, Ltd., priority 2001, dated 2012)
